{
  "source": "paper PMC11990524",
  "about": "“Design and Synthesis of Novel 6-(Substituted phenyl)-[1,3]dioxolo[4′,5′:4,5]benzo[1,2-d]thiazole Compounds as Tyrosinase Inhibitors: In Vitro and In Vivo Insights” (Molecules, 2025)",
  "key": {"HaCaT cells": {"tested_on": "HaCaT cells", "assay": "Cytotoxicity assay on HaCaT cells (EZ-Cytox)", "assay_type": "cell-based, human", "details": "1, 2, 5, 10, and 20 μM, 24 h", "procedure": "In addition to melanocytes, keratinocytes are the primary cells present in the epidermis. […] Each compound was treated at concentrations of 0, 1, 2, 5, 10, and 20 μM for 24 h, and cell viability was measured using the EZ-Cytox solution.\nThe effect of compounds 5 and 9 on cell viability of HaCaT and B16F10 cells was assessed using an EZ-Cytox solution (EZ-1000®, DoGenBio, Seoul, Republic of Korea). HaCaT (5 × 10^3 cells/well) and B16F10 (1 × 10^3 cells/well) cells were seeded in a 96-well plate, respectively, and cultured for 24 h under the same conditions as the cell culture. Each well was treated with 5 and 9 at 0, 1, 2, and 5 μM for B16F10 cells and 0, 1, 2, 5, 10, and 20 μM for HaCaT cells. The plates were incubated for 72 h for B16F10 cells and 24 h for HaCaT cells under a CO2 incubator. Each well was treated with the EZ-Cytox solution (10 μL), and the plate was left for 2 h under a CO2 incubator. Well optical density was measured at 450 nm to determine cytotoxicity."}, "[1]": {"assay": "DPPH radical scavenging assay", "details": "500 μM; 30 min in the dark", "procedure": "DPPH radical scavenging activity was determined by mixing the DPPH solution with compounds 1–13, leaving it in the dark at 20 °C for 30 min, and measuring the optical density at 517 nm. Ascorbic acid (AA) was used as a positive control to compare the scavenging activity. All test samples were used at 500 μM.\nAn aliquot (20 μL) of test sample (compounds 1–13 and ascorbic acid [positive control]; 5 mM) in DMSO and 180 μL DPPH solution (0.2 mM) in methanol were mixed in each well of a 96-well plate. The mixed solution was kept in the dark at 18 °C for 30 min. A VE microplate reader was used to measure the optical density of each well at 517 nm."}, "[2]": {"target": "T1, B16F10 cellular tyrosinase (Mus musculus, UniProt P11344)", "T1 construct": "endogenous in cells; host or cells: B16F10 murine cells, stimulated with α-MSH and IBMX", "T1 sequence (P11344 19-533)": "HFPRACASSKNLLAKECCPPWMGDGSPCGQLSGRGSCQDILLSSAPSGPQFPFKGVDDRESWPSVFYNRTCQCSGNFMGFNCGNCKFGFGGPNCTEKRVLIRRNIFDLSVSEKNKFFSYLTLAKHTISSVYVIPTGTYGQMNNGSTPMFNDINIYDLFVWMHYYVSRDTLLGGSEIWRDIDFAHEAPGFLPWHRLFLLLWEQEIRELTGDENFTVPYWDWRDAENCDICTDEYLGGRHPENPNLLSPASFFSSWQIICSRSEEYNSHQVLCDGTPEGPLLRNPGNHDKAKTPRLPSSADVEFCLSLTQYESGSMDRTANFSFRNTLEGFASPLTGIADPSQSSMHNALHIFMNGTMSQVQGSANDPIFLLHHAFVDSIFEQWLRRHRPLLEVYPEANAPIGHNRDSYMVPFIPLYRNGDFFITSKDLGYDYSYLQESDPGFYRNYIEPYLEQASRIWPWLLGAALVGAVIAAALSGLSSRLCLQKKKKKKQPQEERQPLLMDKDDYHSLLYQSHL", "assay": "Cellular tyrosinase activity assay using B16F10 cells", "assay_type": "cell-based, murine", "details": "1, 2, and 5 μM, IBMX 200 μM plus α-MSH 1 μM, 72 h", "procedure": "After 72 h of incubation, the B16F10 cellular tyrosinase inhibitory activity was evaluated by measuring the optical density at 475 nm.\nTo evaluate the effect of compounds 5 and 9 on cellular tyrosinase activity, B16F10 cells (5000 cells/well) were inoculated in a 6-well plate and cultured for 24 h under the same conditions as the cell culture. […] The plate was incubated in a 5% CO2 incubator maintained at 37 °C for 1 h. Each well was treated with stimulators (1 μM α-MSH [Alomone Labs^TM, Jerusalem, Israel] and 200 μM IBMX [Thermo Fisher, Rockford, IL, USA]) and incubated in a CO2 incubator for 72 h. The cells were rinsed twice with PBS (pH 7.4) and treated with 100 μL lysis buffer solution consisting of Triton X-100 (1%; 5 μL), phosphate buffer (50 mM; pH 6.5; 90 μL), and phenylmethanesulfonyl fluoride (2 mM; 5 μL). The lysates were placed for 30 min at −80 °C. After centrifuging at 10,000 g and 4 °C for 10 min, an aliquot (80 μL) of the supernatants was transferred to each well of a 96-well plate, and 20 μL of L-dopa solution (10 mM) was added to each well. The optical density at 475 nm was recorded every min for 10 min to determine cellular tyrosinase activity."}, "[3]": {"assay": "ABTS radical scavenging assay", "details": "100 μM", "procedure": "The ABTS^+ radical solution was obtained by mixing ABTS and potassium persulfate, an oxidizing reagent, and test samples (1–13 and Trolox [positive control]; final concentration: 100 μM) were added to determine their ABTS^+ radical scavenging ability by measuring the optical density at 732 nm.\nTo prepare ABTS^•+ stock solution, equal amounts of ABTS (14 mM aqueous solution) and K2S2O8 (4.9 mM aqueous solution) were mixed and stored in the dark at 18 °C for 15 h. The prepared ABTS^•+ solution was diluted in ethanol to adjust the absorbance to 0.7 ± 0.01 at 732 nm. The test samples (Trolox [positive control] and compounds 1–13) were dissolved in a cosolvent of ethanol and DMSO (10:1 [v/v]). The adjusted ABTS^•+ solution (90 μL) and test sample (10 μL) were added to each well of a 96-well plate, and the plate was stored in a dark place at 18 °C for 2 min. The optical density was measured at 732 nm every min for 10 min. The test sample solutions were tested at a final concentration of 100 μM. The percentage of radical scavenging activity was calculated as follows: % Radical scavenging activity = 100 × [(Absc − Abst)/Absc], where Abst and Absc are optical densities of the test sample and control, respectively."}, "B16F10 cells": {"tested_on": "B16F10 cells", "assay": "Cellular melanin content assay using B16F10 cells", "assay_type": "cell-based, murine", "procedure": "After 72 h of incubation, the melanin content was evaluated by measuring the optical density at 405 nm.\nThe plate was incubated in a CO2 incubator for 1 h. Each well was treated with stimulators (α-MSH and IBMX; 1 μM and 200 μM, respectively) and incubated in a CO2 incubator for 72 h. The incubated cells were rinsed twice with PBS (pH 7.4). 1N–NaOH solution (100 μL) was added to each well and warmed at 60 °C for 1 h. The lysates were transferred to each well of a 96-well plate. The optical density was measured at 405 nm."}},
  "data": [
    {"smiles": "Oc1ccc(-c2nc3cc4c(cc3s2)OCO4)c(O)c1", "note": "[Compound 9, 4-([1,3]Dioxolo[4′,5′:4,5]benzo[1,2-d]thiazol-6-yl)benzene-1,3-diol]", "values": [
      {"measurement": "cytotoxicity (cell viability)", "setting": "HaCaT cells", "result": "None of the compounds revealed significant cytotoxicity up to 20 μM"},
      {"measurement": "DPPH radical scavenging (inhibition)", "setting": "[1]", "result": 85, "unit": "%"},
      {"measurement": "cellular tyrosinase activity", "setting": "[2]", "result": "significantly decreased the cellular tyrosinase activity"},
      {"measurement": "ABTS^+ radical scavenging activity (inhibition rate)", "setting": "[3]", "result": 96, "unit": "%"},
      {"measurement": "melanin content", "setting": "B16F10 cells; 1, 2, and 5 μM, IBMX 200 μM plus α-MSH 1 μM, 72 h", "result": "significantly reduced the stimulator-induced melanin contents"},
      {"measurement": "melanin production inhibition compared with kojic acid", "setting": "B16F10 cells; same concentration (5 μM)", "result": "inhibited melanin production more potently than kojic acid"}
    ]}
  ]
}
